We go through 4 compounds from article PMC12063043, “Exploring Tyramine's Role in the Formation of Supramolecular Adducts with Nonsteroidal Anti‐Inflammatory Drugs” (Chemistry (Weinheim an Der Bergstrasse, Germany), 2025).

In general, solubility refers to the concentration that dissolves in the medium under given conditions. A low value points to little dissolved substance. The term Aqueous solubility denotes the concentration that dissolves in the medium under given conditions.

Series [1] is described as follows: pKa of the co-former TYA and the APIs, and ΔpKa rule. It counts as physicochemical. As to conditions: heading: ΔpKa [= pKa – pKa]; for the adduct of the API (acid) with TYA (base).
Series [2] is described as follows: Aqueous solubility tests by solution 1H NMR. As to conditions: for solubility at 3 days: deionized water, water, thermodynamic from solid.
For series [3] the following is noted: ref PubChem; cited from earlier work.

Converted amounts (≈) assume the structure as drawn.

`CC(C(=O)O)c1ccc(-c2ccccc2)c(F)c1` (racemic) [FLU, (±)‐2‐(2‐fluorobiphenyl‐4‐yl)propionic acid] registered a ΔpKa in series [1] of 5.44. In addition, in series [2], the concentration in solution (solubility at 3 days) came to 19 ± 2 µg/mL (≈ 77.8 µM).

Turning to `O=C(O)c1cc(-c2ccc(F)cc2F)ccc1O` [DIF, 2′,4′‐difluoro‐4‐hydroxy‐[1,1′‐biphenyl]‐3‐carboxylic acid], the ΔpKa in series [1] was determined as 6.36. The amount in solution in series [2] (solubility at 3 days) came to 28 ± 2 µg/mL (≈ 112 µM).

In the case of `NCCc1ccc(O)cc1.O=C(O)c1cc(-c2ccc(F)cc2F)ccc1O` [DIF-TYA Form II], in series [2] (aqueous solution, adduct versus pure API), the “Increase in aqueous solubility of adduct versus pure API” value amounted to 17 fold. Besides, the Aqueous solubility in series [2] (deionized H2O, stirred 3 days, filtered, 1H NMR at 298 K with TSP internal standard, concentration of the drug in solution, average of three measurements ± standard deviation) came to 473 ± 79 µg/mL.

In the case of `NCCc1ccc(O)cc1` [TYA, 4‐(2‐aminoethyl)phenol], the pKa in series [3] was 9.66^[ ^a ^].
